pIC50: −log10 of the molar value. Non-standard residues stand in square brackets, D forms with d. Residues, ends and D or L forms follow the SMILES beside them. *: point of attachment. Butyryl(4-indol-3-yl) = O=C(CCCc1c[nH]c2ccccc12)*; Dihydroorotyl(S) = O=C1C[C@@H](C(=O)*)NC(=O)N1; Phthalimidoacetyl = O=C1c2ccccc2C(=O)N1CC(=O)*; X4 = COc1ccc2[nH]c(C)c(CC(=O)*)c2c1; Hyp = O=C(O)[C@@H]1C[C@@H](O)CN1; X8 = COc1ccc2[nH]cc(CC(=O)*)c2c1; X7 = Cc1[nH]c2ccccc2c1CC(=O)*; pGlu = O=C1CC[C@@H](C(=O)O)N1; X2 = O=C(Cc1c[nH]c2ccccc12)*; NMePro = CN1CCC[C@H]1C(=O)*; X6 = O=C1NC(=O)C(CC(=O)*)N1; X1 = O=C1N[C@H](C(=O)*)CS1; Pip = O=C(O)[C@@H]1CCCCN1; X3 = O=C(c1cc(O)nc(O)n1)*; Thz = O=C(O)[C@@H]1CSCN1; Aze = O=C(O)[C@@H]1CCN1; X5 = O=C([C@@H]1CCCO1)*; PhAc = O=C(Cc1ccccc1)*; Bz = O=C(c1ccccc1)*
Key:
Homo sapiens = organism: Homo sapiens; assay: Inhibition of collagen-induced human platelet aggregation.; format: functional
[1] = T1/2 was evaluated in human plasma; format: ADME, cell-free

Row | Molecule | pIC50 (Homo sapiens) | half-life [1]
1 | N=C(N)NCCC[C@H](NC(=O)[C@H](CO)NC(=O)[C@@H]1CCCN1)C(=O)NCC(=O)N[C@@H](CC(=O)O)C(=O)N[C@@H](Cc1c[nH]c2ccccc12)C(=O)O | 6.06 | 
2 | N=C(N)NCCC[C@H](NC(=O)[C@H](CO)NC(=O)[C@H]1CCCN1)C(=O)NCC(=O)N[C@@H](CC(=O)O)C(=O)N[C@@H](Cc1c[nH]c2ccccc12)C(=O)O | 4.48 | 
3 | N=C(N)NCCC[C@H](NC(=O)[C@H](CO)NC(=O)c1ccccc1)C(=O)NCC(=O)N[C@@H](CC(=O)O)C(=O)N[C@@H](Cc1c[nH]c2ccccc12)C(N)=O (Bz-SRGDW-NH2) | 4.47 | 
4 | NC(=O)[C@H](Cc1ccccc1)NC(=O)[C@H](CC(=O)O)NC(=O)CNC(=O)[C@@H](N)CCCN=C(N)N (H-RGDF-NH2) | 4.30 | 
5 | N=C(N)NCCC[C@H](NC(=O)[C@H](CO)NC(=O)[C@@H]1CCN1)C(=O)NCC(=O)N[C@@H](CC(=O)O)C(=O)N[C@@H](Cc1c[nH]c2ccccc12)C(=O)O (H-[Aze]SRGDW-OH) | 5.89 | 
6 | N=C(N)NCCC[C@H](NC(=O)[C@H](CO)NC(=O)[C@@H]1C[C@@H](O)CN1)C(=O)NCC(=O)N[C@@H](CC(=O)O)C(=O)N[C@@H](Cc1c[nH]c2ccccc12)C(=O)O (H-[Hyp]SRGDW-OH) | 4.55 | 
7 | N=C(N)NCCC[C@H](NC(=O)[C@H](CO)NC(=O)[C@@H]1CCCCN1)C(=O)NCC(=O)N[C@@H](CC(=O)O)C(=O)N[C@@H](Cc1c[nH]c2ccccc12)C(=O)O (H-[Pip]SRGDW-OH) | 4.96 | 
8 | N=C(N)NCCC[C@H](NC(=O)[C@H](CO)NC(=O)[C@@H]1CSCN1)C(=O)NCC(=O)N[C@@H](CC(=O)O)C(=O)N[C@@H](Cc1c[nH]c2ccccc12)C(=O)O (H-[Thz]SRGDW-OH) | 4.57 | 
9 | CN1CCC[C@H]1C(=O)N[C@@H](CO)C(=O)N[C@@H](CCCN=C(N)N)C(=O)NCC(=O)N[C@@H](CC(=O)O)C(=O)N[C@@H](Cc1c[nH]c2ccccc12)C(=O)O (NMePro-SRGDW-OH) | 4.70 | 
10 | N=C(N)NCCC[C@H](NC(=O)[C@H](CO)NC(=O)Cc1ccccc1)C(=O)NCC(=O)N[C@@H](CC(=O)O)C(=O)N[C@@H](Cc1c[nH]c2ccccc12)C(N)=O (PhAc-SRGDW-NH2) | 4.23 | 
11 | N=C(N)NCCC[C@H](NC(=O)[C@H](CO)NC(=O)CN1C(=O)c2ccccc2C1=O)C(=O)NCC(=O)N[C@@H](CC(=O)O)C(=O)N[C@@H](Cc1c[nH]c2ccccc12)C(N)=O (Phthalimidoacetyl-SRGDW-NH2) | 4.68 | 
12 | N=C(N)NCCC[C@H](NC(=O)[C@H](CO)NC(=O)[C@@H]1CSC(=O)N1)C(=O)NCC(=O)N[C@@H](CC(=O)O)C(=O)N[C@@H](Cc1c[nH]c2ccccc12)C(=O)O (X1-SRGDW-OH) | 4.92 | 
13 | N=C(N)NCCC[C@H](NC(=O)[C@H](CO)NC(=O)Cc1c[nH]c2ccccc12)C(=O)NCC(=O)N[C@@H](CC(=O)O)C(=O)N[C@@H](Cc1c[nH]c2ccccc12)C(=O)O (X2-SRGDW-OH) | 4.68 | 
14 | N=C(N)NCCC[C@H](NC(=O)[C@H](CO)NC(=O)c1cc(O)nc(O)n1)C(=O)NCC(=O)N[C@@H](CC(=O)O)C(=O)N[C@@H](Cc1c[nH]c2ccccc12)C(=O)O (X3-SRGDW-OH) | 5.40 | 
15 | COc1ccc2[nH]c(C)c(CC(=O)N[C@@H](CO)C(=O)N[C@@H](CCCN=C(N)N)C(=O)NCC(=O)N[C@@H](CC(=O)O)C(=O)N[C@@H](Cc3c[nH]c4ccccc34)C(=O)O)c2c1 (X4-SRGDW-OH) | 4.60 | 
16 | N=C(N)NCCC[C@H](NC(=O)[C@H](CO)NC(=O)[C@@H]1CCCO1)C(=O)NCC(=O)N[C@@H](CC(=O)O)C(=O)N[C@@H](Cc1c[nH]c2ccccc12)C(=O)O (X5-SRGDW-OH) | 4.68 | 
17 | N=C(N)NCCC[C@H](NC(=O)[C@H](CO)NC(=O)CC1NC(=O)NC1=O)C(=O)NCC(=O)N[C@@H](CC(=O)O)C(=O)N[C@@H](Cc1c[nH]c2ccccc12)C(=O)O (some centres not stated) (X6-SRGDW-OH) | 5.16 | 
18 | Cc1[nH]c2ccccc2c1CC(=O)N[C@@H](CO)C(=O)N[C@@H](CCCN=C(N)N)C(=O)NCC(=O)N[C@@H](CC(=O)O)C(=O)N[C@@H](Cc1c[nH]c2ccccc12)C(=O)O (X7-SRGDW-OH) | 4.66 | 
19 | COc1ccc2[nH]cc(CC(=O)N[C@@H](CO)C(=O)N[C@@H](CCCN=C(N)N)C(=O)NCC(=O)N[C@@H](CC(=O)O)C(=O)N[C@@H](Cc3c[nH]c4ccccc34)C(=O)O)c2c1 (X8-SRGDW-OH) | 4.96 | 
20 | N=C(N)NCCC[C@H](NC(=O)[C@H](CO)NC(=O)[C@@H]1CCC(=O)N1)C(=O)NCC(=O)N[C@@H](CC(=O)O)C(=O)N[C@@H](Cc1c[nH]c2ccccc12)C(=O)O ([pGlu]SRGDW-OH) | 5.25 | 
21 | N=C(N)NCCC[C@H](NC(=O)[C@H](CO)NC(=O)CCCc1c[nH]c2ccccc12)C(=O)NCC(=O)N[C@@H](CC(=O)O)C(=O)N[C@@H](Cc1c[nH]c2ccccc12)C(=O)O ({Butyryl(4-indol-3-yl)}-SRGDW-OH) | 4.68 | 
22 | N=C(N)NCCC[C@H](NC(=O)[C@H](CO)NC(=O)[C@@H]1CC(=O)NC(=O)N1)C(=O)NCC(=O)N[C@@H](CC(=O)O)C(=O)N[C@@H](Cc1c[nH]c2ccccc12)C(=O)O ({Dihydroorotyl(S)}-SRGDW-OH) | 5.06 | 
23 | Ac-PSRGDW-OH | 4.30 | 
24 | Ac-SRGDW-NH2 | 4.13 | 
25 | H-FSRGDW-OH | 4.64 | 
26 | H-WSRGDW-OH | 5.17 | 11 min

Reference: ChEMBL document CHEMBL1129095, “Design and synthesis of new antagonist peptides for platelet GPIIb/IIIa receptor as anti-thrombotic agents” (Bioorg Med Chem Lett, 1996)
